Measured values reported in patent publication US10973912B2, “Treatment for myopathy” (Children's Medical Center Corporation, priority 2015, dated 2021).

Columns and labels:
[1] = tested on: ryr1b homozygous mutant zebrafish; test: Secondary screen of individual chemicals in ryr1b zebrafish (vitality: survival and touch-evoked escape behavior); type: in vivo, zebrafish (Danio rerio); design: key: vitality score, theoretical range 0–60; DMSO controls expected ~50; details: 2.0 μg/mL from 1 dpf, scored at 5 dpf; average of two replicates of 20 larvae from heterozygous ryr1b matings; score=(#Dead*0)+(#ryr1b*1)+(#Moderate*2)+(#Wild-type*3), max 60, expected 50 in DMSO controls
Protocol: Each scored compound represents an average of two replicates, consisting of 20 larvae from heterozygous ryr1b matings (n=40). Larvae obtained from wild-type AB matings served as positive controls. […] Significance was determined by pairwise comparisons between control and experimental pools using a Student's t-test. Vitality score=(#Dead*0)+(#ryr1b*1)+(#Moderate*2)+(#Wild-type*3). Standard deviations shown for positive and negative controls were calculated based on results from 5 and 21 independent experiments, respectively.
Primary screen. For the primary screen, twenty embryos (1 dpf) resulting from a mating of heterozygous ryr1b zebrafish were manually sorted into 48-well plates containing 250 μL embryo 1×E3 medium (5.0 mM NaCl, 0.17 mM KCl, 0.33 mM CaCl2*2H2O, 0.33 mM MgSO4*7H2O) and four pooled chemicals from the Prestwick2 chemical library. Each chemical pool was assayed in duplicate using embryos from two independent clutches, for a total of 24 distinct pools tested per plate (FIG. 1). The chemicals were dissolved to a final concentration of 2.0 μg/mL and 0.4% DMSO, which is similar to concentrations other groups have used in zebrafish studies^37,38. As a negative control, twenty embryos from each clutch were cultured without chemicals in vehicle only (0.4% DMSO) (FIG. 1). Larvae obtained from wild-type (Oregon AB) matings served as positive controls in separate plates. All plates containing embryos were incubated at 28.5° C. and maintained as initially treated for 5 days. Dead embryos were removed from wells when observed during the first 4 days of the study. On day 5, dead or “motion-dead” larvae were scored alongside living larvae.
At 5 dpf, pools were scored for their ability to improve the survival and touch-evoked escape behaviors of ryr1b homozygous mutants using the following numeric scoring system: 3=4-6 cm, fast (wild-type); 2=2-4 cm (moderate); 1=<2 cm, slow (ryr1b); 0=no movement (dead) (FIG. 2A). Survival, swimming, and combined endpoints of the primary screen were then examined for their ability to distinguish positive from negative controls. […] Taking into account both experimental replicates (n=40), hit pools contained at least 37 alive larvae on day 5 (i.e., 70-100% of the larvae assumed to be ryr1b mutants survived the duration of the study), and were selected for analysis in a secondary screen.
In the secondary screen, hit pools were separated and tested as 68 individual chemicals. Screening was performed precisely as described for the primary screen with few modifications. Embryos were raised in wells containing 750 μL 1×E3 medium, as opposed to 250 μL, although the final concentration of each compound was maintained at 2.0 μg/mL. […] Vitality scores, weighting survival and swimming ratios appropriately, were calculated as (#Dead*0)+(#ryr1b*1)+(#Moderate*2)+(#Wild-type*3). Theoretical maximum and minimum scores were 60 and 0, respectively, with an expected score of 50 in DMSO-treated controls. Secondary screen hits (P<0.05), considered “candidate” compounds, are currently being examined in dose-response and long-term studies.
The second tier of the chemical screen was performed two years following the primary screen, with a fully established ryr1b^+/− line. Healthier clutches tended to result in better survival of homozygous ryr1b mutants. Median mutant life spans more accurately adhered to the 7-15 day estimate previously published^30. Therefore, in the secondary screen, hit chemical pools were separated into individual compounds and each of 68 total compounds was examined for its ability to positively influence both ryr1b survival and motor function (referred to in combination as “vitality”). […] These included two anti-inflammatory agents (sulfasalazine and ketoprofen), two monoamine oxidase inhibitors (pargyline hydrochloride and tranylcypromine hydrochloride), and two ion channel modulators (metolazone and nimodipine).

[2] = tested on: ryr1b homozygous mutant zebrafish; type: in vivo, zebrafish (Danio rerio)
Protocol: In two independent experiments, two pools of 20 larvae from heterozygous ryr1b matings were treated with DMSO or with one of three different concentrations of NIF (1.0-100.0 μg/mL) at 1 dpf and evaluated in terms of touch-evoked escape behaviors at 5 dpf (n=40). Following phenotypic scoring, all living embryos were genotyped using three-primer genomic PCR. Swimming scores for larvae genotype-confirmed as ryr1b homozygous mutants are shown as a percentage of the total number of living larvae in each dose category: 1=poor swimming; 2 or 3=moderate or wild-type swimming. NIF improved mobility of ryr1b mutants at a dose of 10 μg/mL. […] Phospho-Stat3 band intensities were normalized to β-Actin control bands and quantified in Image J (NIH).
FIGS. 12A-12C show a ketoprofen dose-response and proposed mechanistic link. […] FIG. 12B is a dose-response graph for ketoprofen (KETO). Two pools of 20 larvae from heterozygous ryr1b matings were treated with DMSO or four different concentrations of KETO (1.0-100.0 μg/mL) at 1 dpf and evaluated in terms of touch-evoked escape behaviors at 5 dpf (n=40). Following phenotypic scoring, all living embryos were genotyped using three-primer genomic PCR. Swimming scores for larvae genotype-confirmed as ryr1b homozygous mutants are shown as a percentage of the total number of living larvae in each dose category: 1=poor swimming, 2 or 3=moderate or wild-type swimming. […] Phosphorylated STATs form dimers, translocate to nuclei, and from there are associated with various transcriptional activities. Dubowitz, V. and Sewry, C. (2006) Muscle Biopsy: A Practical Approach. Elsevier-Health Sciences Division.
The relatively relaxed zebrafish was initially identified due to a spontaneous autosomal recessive mutation within the ryr1b gene^30. Specifically, ryr1b mutants carry a 4046 base pair (bp) DNA insertion in the intron between exons 48 and 49 that includes an additional 32 bp sequence found in mutant cDNA (FIG. 3)^30. Genotypes of individual embryos were examined using three-primer genomic PCR, with an expected wild-type band of 1,668 bp and a mutant band of 653 bp. Primer sequences were as follows: ryr1b #1 (forward): 5′-[…]-3′ (SEQ ID NO: 4); ryr1b #2 (reverse): 5′-[…]-3′ (SEQ ID NO: 5); and ryr1b #3 (reverse): 5′-[…]-3′ (SEQ ID NO: 6).
The primary and secondary screens only tested chemical pools and individual compounds at a single concentration (2.0 μg/mL). Although beneficial in a high-throughput context, this approach can result in false positives and false negatives. […] For analysis, pools of 20 larvae obtained from heterozygous ryr1b matings were treated in duplicate with DMSO or with one of three different concentrations of NIF (1.0-100.0 μg/mL) at 1 dpf and scored for touch-evoked escape behaviors at 5 dpf. All scored larvae were then genotyped using three-primer genomic PCR. […] Next, hit expansion was used to verify JAK-STAT as a potential molecular pathway involved in ryr1b mutant pathology. […] A higher effective dose for 5,15-DPP was consistent with the IC50 measurements reported for each compound^40,41.

SMILES: O=C(N/N=C/c1ccc([N+](=O)[O-])o1)c1ccc(O)cc1 [Nifuroxazide]
- Vitality Score [1]: 52.0
- dose that improved mobility of ryr1b mutants / optimal activity ([2]; treated at 1 dpf, touch-evoked escape behaviors at 5 dpf, tested 1.0-100.0 μg/mL): 10 µg/mL
- touch-evoked escape behaviors / mobility of ryr1b mutants ([2]; treated from 1 dpf, scored and genotyped at 5 dpf): ryr1b mutants were among larvae that exhibited wild-type touch-evoked escape behaviors
